The structures appear in SMILES notation. pIC50: −log10 of the molar value.

The target in this experiment is Serotonin 5HT7 receptors (Homo sapiens (Human), UniProt P34969). The experiment can be described thus: Radiolabel Binding Studies for Serotonin 5HT7 receptors. As to conditions: for inhibition at 10 µM: read-out: 5-HT7 % inhib @ 10 uM; for pIC50: membranes of cells expressing recombinant 5HT7 receptors. The protocol: Radiolabel Binding Studies for Serotonin 5HT7 receptors, method 1:
Eleven dilutions (5× assay concentration) of the compound of the disclosure and chlorpromazine are prepared in the Assay Buffer by serial dilution to yield final corresponding assay concentrations ranging from 10 pM to 10 μM.
A stock concentration of 5 nM [^3H]LSD (lysergic acid diethyl amide) is prepared in 50 mM Tris-HCl, 10 mM MgCl2, 1 mM EDTA, pH 7.4 (Assay Buffer). Aliquots (50 μl) of radioligand are dispensed into the wells of a 96-well plate containing 100 μl of Assay Buffer. Duplicate 50-μl aliquots of the compound of the disclosure test and chlorpromazine positive control reference compound serial dilutions are added.
Membrane fractions of cells expressing recombinant 5HT7 receptors (50 μL) are dispensed into each well. The membranes are prepared from stably transfected cell lines expressing 5HT7 receptors cultured on 10-cm plates by harvesting PBS-rinsed monolayers, resuspending and lysing in chilled, hypotonic 50 mM Tris-HCl, pH 7.4, centrifuging at 20,000×g, decanting the supernatant and storing at −80° C.; the membrane preparations are resuspended in 3 ml of chilled Assay Buffer and homogenized by several passages through a 26 gauge needle before using in the assay.
The 250-μl reactions are incubated at room temperature for 1.5 hours, then harvested by rapid filtration onto 0.3% polyethyleneimine-treated, 96-well filter mats using a 96-well Filtermate harvester. Four rapid 500-μl washes are performed with chilled Assay Buffer to reduce non-specific binding. The filter mats are dried, then scintillant is added to the filters and the radioactivity retained on the filters is counted in a Microbeta scintillation counter.
Raw data (dpm) representing total radioligand binding (i.e., specific+non-specific binding) are plotted as a function of the logarithm of the molar concentration of the competitor (i.e., test or reference compound).
Radiolabel Binding Studies for Serotonin 5-HT7 receptors, method 2:
A stock concentration of 5 nM [^3H]-5-Hydroxytryptamine ([^3H]-5HT) is prepared in 50 mM Tris-HCl, 10 mM MgCl2, 1 mM EDTA, pH 7.4 (Assay Buffer). Aliquots (50 μl) of radioligand are dispensed into the wells of a 96-well plate containing 100 μl of Assay Buffer. Duplicate 50-μl aliquots of the compound of the disclosure test and chlorpromazine positive control reference compound serial dilutions are added.

Take `O=C1OC(CCN2CCN(c3ccc4[nH]c(=O)[nH]c4c3)CC2)CC12CCCC2` (centres unmarked) [Entry 160151]: the inhibition at 10 µM was found to be 35.9%.
Consider `O=C1OC(CCN2CCN(c3ccnc(Cl)c3)CC2)CC12CCCC2` (centres unmarked) [Entry 230011], for which the inhibition at 10 µM worked out at 40.3%.
Take `CCC1(CC)CC(CCCN2CCN(c3ccc(C#N)cc3)CC2)OC1=O` (centres unmarked) [Entry 230058]: the pIC50 is 6.02 and the inhibition at 10 µM amounted to 78.6%.
In the case of `CCC1(CC)CC(CCCN2CCN(c3ccc(C)cc3)CC2)OC1=O` (centres unmarked) [Entry 230061], the pIC50 is 6.77 and the inhibition at 10 µM was determined as 94.9%.
As for `COc1ccccc1N1CCN(CCC2CC3(CCC3)C(=O)O2)CC1` (centres unmarked) [Entry 230015], the pIC50 is 6.50 and the inhibition at 10 µM was determined as 83.4%.
Take `Nc1cc(N2CCN(CCC3CC4(CCCCC4)C(=O)O3)CC2)ccc1[N+](=O)[O-]` (centres unmarked) [Entry 160149]: the pIC50 was 6.30 and the inhibition at 10 µM came out at 84.7%.
With `O=C1OC(CCN2CCN(c3ccc4[nH]ccc4c3)CC2)CC12CCCCC2` (centres unmarked) [Entry 160146], the pIC50 was 7.19 and the inhibition at 10 µM amounted to 97.9%.
As for `O=C1OC(CCN2CCN(c3ccc(Cl)cn3)CC2)CC12CCCCC2` (centres unmarked) [Entry 160145], the pIC50 was 7.48. Moreover, the “5-HT7 % inhib @ 10 uM” value (single concentration of 10 uM, percent inhibition of radioligand binding) is recorded as 96.7%.
For the molecule `CCC1(CC)CC(CCN2CCN(c3ccc4nc(C(F)(F)F)[nH]c4c3)CC2)OC1=O` (centres unmarked) [Entry 230068], the negative-log IC50 (pIC50) is 5.00 and the inhibition at 10 µM turned out to be 44%.
Regarding `CCC1(CC)CC(CCN2CCN(c3ccc4nc(C)[nH]c4c3)CC2)OC1=O` (centres unmarked) [Entry 230069], the pIC50 is 5.00.
For `O=C1OC(CCN2CCN(c3ccc4[nH]c(=O)[nH]c4c3)CC2)CC12CCCCC2` (centres unmarked) [Entry 160150], the pIC50 was 5.91 and the inhibition at 10 µM came out at 76.9%.
On to `CCC1(CC)CC(CCCN2CCN(c3ccc(OC)cc3)CC2)OC1=O` (centres unmarked) [Entry 230060], for which the pIC50 was 5.00 and the inhibition at 10 µM stood at 43.6%.
In the case of `CCC1(CC)CC(CCCN2CCN(c3ccccc3C(C)C)CC2)OC1=O` (centres unmarked) [Entry 230062], the pIC50 was 7.92 and the inhibition at 10 µM came out at 98.6%.
For `N#Cc1ccnc(N2CCN(CCC3CC4(CCCC4)C(=O)O3)CC2)c1` (centres unmarked) [Entry 230012], in that order: 6.36 and 76.6%.
Regarding `COc1ccc(N2CCN(CC[C@@H]3CC(C)(C)C(=O)O3)CC2)cc1` [Entry 230039], the pIC50 is 5.00 and the inhibition at 10 µM worked out at 42.6%.
With `CS(=O)(=O)Nc1ccc(N2CCN(CCC3CC4(CCCC4)C(=O)O3)CC2)cc1` (centres unmarked) [Entry 230008], the inhibition at 10 µM was determined as 33.2%.
For the molecule `CCC1(CC)CC(CCN2CCc3ccc(F)cc3C2)OC1=O` (centres unmarked) [Entry 230071], the negative logarithm of the IC50 (pIC50) was 8.00 and the inhibition at 10 µM turned out to be 99.3%.
On the same counts, the results for `COc1ccccc1N1CCN(CCC2CC3(CCCC3)C(=O)O2)CC1` (centres unmarked) [Entry 230013] are 6.84 and 90.9%.
With `O=C1OC(CCN2CCN(c3ccc4[nH]c(=O)[nH]c4c3)CC2)CC12CCC2` (centres unmarked) [Entry 160152], the pIC50 is 5.65 and the inhibition at 10 µM was 59.5%.
Regarding `O=C1OC(CCN2CCN(c3ccccc3O)CC2)CC12CCC2` (centres unmarked) [Entry 230016], the pIC50 is 6.52 and the inhibition at 10 µM was 84.7%.
For the molecule `O=C1OC(CCN2CCN(c3cc(Cl)ccn3)CC2)CC12CCCC2` (centres unmarked) [Entry 230010], the inhibition at 10 µM worked out at 33.5%.
Take `CCC1(CC)CC(CCCN2CCN(c3ccccn3)CC2)OC1=O` (centres unmarked) [Entry 230063]: the pIC50 is 7.03 and the inhibition at 10 µM is 98.9%.
With `O=C1OC(CCN2CCN(c3ccccc3O)CC2)CC12CCCC2` (centres unmarked) [Entry 230014], the pIC50 was 7.11 and the inhibition at 10 µM was determined as 91.5%.
Take `O=C1OC(CCN2CCN(c3ccc4[nH]ccc4c3)CC2)CC12CCCC2` (centres unmarked) [Entry 160147]: the inhibition at 10 µM came to 9%.
For `CCC1(CC)CC(CCCN2CCN(c3ccccc3)CC2)OC1=O` (centres unmarked) [Entry 230057], the pIC50 is 7.26 and the inhibition at 10 µM turned out to be 98.5%.
Consider `CCC1(CC)C[C@H](CCN2CCN(c3ccncc3)CC2)OC1=O` [Entry 230083], for which the pIC50 was 5.24 and the inhibition at 10 µM stood at 51%.
`O=C1OC(CCN2CCN(c3ccnc(Cl)c3)CC2)CC12CCCCC2` (centres unmarked) [Entry 160153]: the pIC50 was 5.36 and the inhibition at 10 µM turned out to be 58.2%.
As to `CCC1(CC)CC(CCN2CCc3ccc(Cl)cc3C2)OC1=O` (centres unmarked) [Entry 230070], the pIC50 was 8.12 and the inhibition at 10 µM is 100%.
Turning to `COc1ccc(N2CCN(CC[C@H]3CC(C)(C)C(=O)O3)CC2)cc1` [Entry 230046], the pIC50 is 5.00 and the inhibition at 10 µM came out at 53.5%.
`CCC1(CC)CC(CCCN2CCN(c3ccc(O)cc3)CC2)OC1=O` (centres unmarked) [Entry 230059]: the pIC50 is 6.45 and the inhibition at 10 µM stood at 88.8%.
Regarding `O=C1OC(CCN2CCN(c3ccc4[nH]ccc4c3)CC2)CC12CCC2` (centres unmarked) [Entry 160148], the pIC50 is 7.06 and the inhibition at 10 µM came to 96.5%.

For the origin of these results see US10544117B2, “5-hydroxytryptamine receptor 7 activity modulators and their method of use” (Temple University—Of the Commonwealth System of Higher …, priority 2014, dated 2020).
